The record followed here is US20260265244A1, “HETEROCYCLIC COMPOUNDS AS STING ANTAGONISTS” (Boehringer Ingelheim International GmbH, priority 2022, published 2026).

Structures are written as SMILES.

The subject of the experiment is STING inhibition in human whole blood (IFNα2α production). Nature of the experiment: Human whole blood assay (HWBA): cGAMP-stimulated IFNα2α production. In kind it is cell-based. The settings on record: Homo sapiens. In outline: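 Na-citrate human whole blood from ≥3 healthy donors, preincubated 60 min at room temperature with compound (8 concentrations, top 10 μM, ~1:5 steps, 0.1% DMSO), then stimulated with cGAMP and incubated 22 h at 37 °C. Plasma IFNα2α measured by MSD immunoassay; % control versus stimulated/unstimulated wells, IC50 by 4-parameter logistic fit.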

On to `Cc1nc2nn(CC(O)CO)cc2cc1-n1nc(-c2cccc3nn(C[C@H](O)c4ccccc4)cc23)c(C(C)C)c1C` (stereo partly drawn) [Example 67, 3-[5-(3-{2-[(2R)-2-hydroxy-2-phenylethyl]-2H-indazol-4-yl}-5-methyl-4-(propan-2-yl)-1H-pyrazol-1-yl)-6-methyl-2H-pyrazolo[3,4-b]pyridin-2-yl]propane-1,2-diol], for which 330 nM corresponded to half-maximal inhibition (IC50).

Regarding `Cn1cc2cc(-c3nc(-c4cccc5nn(C[C@H](O)c6ccc(O)cc6)cc45)c(C4CC4)n3C)c(C3CC3)nc2n1` [Example 55, 4-[(1R)-2-[4-(5-cyclopropyl-2-{6-cyclopropyl-2-methyl-2H-pyrazolo[3,4-b]pyridin-5-yl}-1-methyl-1H-imidazol-4-yl)-2H-indazol-2-yl]-1-hydroxyethyl]phenol], the concentration for half-maximal inhibition (IC50) (usually the point on the concentration scale where inhibition reaches its midpoint) is 200 nM.

On to `Cc1c(C2CC2)c(-c2cccc3nn(C[C@H](O)c4ccccc4)cc23)nn1-c1cc2cn(C)nc2nc1C1CC1` [Example 29, (1R)-2-[4-(4-cyclopropyl-1-{6-cyclopropyl-2-methyl-2H-pyrazolo[3,4-b]pyridin-5-yl}-5-methyl-1H-pyrazol-3-yl)-2H-indazol-2-yl]-1-phenylethan-1-ol], for which half-maximal inhibition (IC50) was put at 110 nM.

As to `Cc1nc2nn(CCCC#N)cc2cc1-n1nc(-c2cccc3nn(C[C@H](O)c4ccccc4)cc23)c(C(C)C)c1C` [Example 2, 4-[5-(3-{2-[(2R)-2-hydroxy-2-phenylethyl]-2H-indazol-4-yl}-5-methyl-4-(propan-2-yl)-1H-pyrazol-1-yl)-6-methyl-2H-pyrazolo[3,4-b]pyridin-2-yl]butanenitrile], 54 nM corresponded to half-maximal inhibition (IC50).

In turn, `Cc1nc2nn(CCCN3CCOCC3)cc2cc1-n1nc(-c2cccc3nn(C[C@H](F)c4ccccc4)cc23)c(C(C)C)c1C` [Example 49, 2-[(2R)-2-fluoro-2-phenylethyl]-4-(5-methyl-1-{6-methyl-2-[3-(morpholin-4-yl)propyl]-2H-pyrazolo[3,4-b]pyridin-5-yl}-4-(propan-2-yl)-1H-pyrazol-3-yl)-2H-indazole] registered an IC50 of 160 nM.

The compound `CCc1nc2nn(C)cc2cc1-c1nc(-c2cccc3nn(C[C@H](F)c4ccc(Cl)cc4)cc23)c(C2CC2)n1C` [Example 72, 2-[(2R)-2-(4-chlorophenyl)-2-fluoroethyl]-4-(5-cyclopropyl-2-{6-ethyl-2-methyl-2H-pyrazolo[3,4-b]pyridin-5-yl}-1-methyl-1H-imidazol-4-yl)-2H-indazole] came in with an IC50 of 400 nM.

Consider `Cc1c(C(C)C)c(-c2cccc3nn(C[C@H](O)c4ccccc4)cc23)nn1-c1cc2cn(C)nc2nc1CN(C)C` [Example 112], for which the IC50 was determined as 170 nM.

Compound `Cc1nc2nn(CCN(C)C)cc2cc1-n1nc(-c2cccc3nn(C[C@H](O)c4ccccc4)cc23)c(C(C)C)c1C` [Example 39, (1R)-2-[4-(1-{2-[2-(dimethylamino)ethyl]-6-methyl-2H-pyrazolo[3,4-b]pyridin-5-yl}-5-methyl-4-(propan-2-yl)-1H-pyrazol-3-yl)-2H-indazol-2-yl]-1-phenylethan-1-ol] had an IC50 of 130 nM.

Compound `Cc1nc2nn(C)cc2cc1-n1nc(-c2cccc3nn(C[C@H](O)c4ccc(F)cc4)cc23)c(C(C)C)c1C` [Example 46, (1R)-2-[4-(1-{2,6-dimethyl-2H-pyrazolo[3,4-b]pyridin-5-yl}-5-methyl-4-(propan-2-yl)-1H-pyrazol-3-yl)-2H-indazol-2-yl]-1-(4-fluorophenyl)ethan-1-ol] yielded an IC50 of 140 nM.

`Cn1c(-c2cc3cn(CCC#N)nc3nc2C2CC2)nc(-c2cccc3nn(C[C@H](O)c4ccccc4)cc23)c1C1CC1` [Example 104, 3-[6-cyclopropyl-5-(5-cyclopropyl-4-{2-[(2R)-2-hydroxy-2-phenylethyl]-2H-indazol-4-yl}-1-methyl-1H-imidazol-2-yl)-2H-pyrazolo[3,4-b]pyridin-2-yl]propanenitrile]: 49 nM corresponded to half-maximal inhibition (IC50).

Take `Cc1nc2nn(C)cc2cc1-n1nc(-c2cccc3nn(C[C@H](OCC4CC4)c4ccccc4)cc23)c(C(C)C)c1C` [Example 63, 2-[(2R)-2-(cyclopropylmethoxy)-2-phenylethyl]-4-(1-{2,6-dimethyl-2H-pyrazolo[3,4-b]pyridin-5-yl}-5-methyl-4-(propan-2-yl)-1H-pyrazol-3-yl)-2H-indazole]: half-maximal inhibition (IC50) was put at 300 nM.

The compound `Cn1cc2cc(-c3nc(-c4cccc5nn(C[C@H](O)c6ccc(OC7COC7)cc6)cc45)c(C4CC4)n3C)c(C3CC3)nc2n1` [Example 69, (1R)-2-[4-(5-cyclopropyl-2-{6-cyclopropyl-2-methyl-2H-pyrazolo[3,4-b]pyridin-5-yl}-1-methyl-1H-imidazol-4-yl)-2H-indazol-2-yl]-1-[4-(oxetan-3-yloxy)phenyl]ethan-1-ol] displayed an IC50 of 360 nM.

Turning to `CC(C)c1nc2nn(C)cc2cc1-c1nc(-c2cccc3nn(C[C@H](O)c4ccccc4)cc23)c(C2CC2)n1C` [Example 97, (1R)-2-(4-{5-Cyclopropyl-1-methyl-2-[2-methyl-6-(propan-2-yl)-2H-pyrazolo[3,4-b]pyridin-5-yl]-1H-imidazol-4-yl}-2H-indazol-2-yl)-1-phenylethan-1-ol], the midpoint of inhibition, the IC50, lay at 52 nM.

With `Cc1c(C(C)C)c(-c2cccc3nn(C[C@H](O)c4ccccc4)cc23)nn1-c1cc2cn(C)nc2nc1CO` [Example 106, (1R)-2-(4-{1-[6-(hydroxymethyl)-2-methyl-2H-pyrazolo[3,4-b]pyridin-5-yl]-5-methyl-4-(propan-2-yl)-1H-pyrazol-3-yl}-2H-indazol-2-yl)-1-phenylethan-1-ol], the half-inhibitory concentration (IC50) was 28 nM.

The compound `CCCc1nc2nn(C)cc2cc1-n1nc(-c2cccc3nn(C[C@H](O)c4ccccc4)cc23)c(C(C)C)c1C` [Example 60, (1R)-2-[4-(5-methyl-1-{2-methyl-6-propyl-2H-pyrazolo[3,4-b]pyridin-5-yl}-4-(propan-2-yl)-1H-pyrazol-3-yl)-2H-indazol-2-yl]-1-phenylethan-1-ol] gave an IC50 of 240 nM.

In turn, `Cc1nc2nn(CCCN3CCC(F)(F)C3)cc2cc1-n1nc(-c2cccc3nn(C[C@H](O)c4ccccc4)cc23)c(C(C)C)c1C` [Example 40, (1R)-2-[4-(1-{2-[3-(3,3-difluoropyrrolidin-1-yl)propyl]-6-methyl-2H-pyrazolo[3,4-b]pyridin-5-yl}-5-methyl-4-(propan-2-yl)-1H-pyrazol-3-yl)-2H-indazol-2-yl]-1-phenylethan-1-ol] yielded an IC50 of 140 nM.

Take `COCCn1cc2cc(-n3nc(-c4cccc5nn(C[C@H](O)c6ccccc6)cc45)c(C(C)C)c3C)c(C)nc2n1` [Example 16, (1R)-2-(4-{1-[2-(2-methoxyethyl)-6-methyl-2H-pyrazolo[3,4-b]pyridin-5-yl]-5-methyl-4-(propan-2-yl)-1H-pyrazol-3-yl}-2H-indazol-2-yl)-1-phenylethan-1-ol]: the IC50 was determined as 79 nM.

Compound `Cc1c(C(C)C)c(-c2cccc3nn(C[C@H](O)c4ccccc4)cc23)nn1-c1cc2cn(C)nc2nc1C1CCC1` [Example 53, (1R)-2-[4-(1-{6-cyclobutyl-2-methyl-2H-pyrazolo[3,4-b]pyridin-5-yl}-5-methyl-4-(propan-2-yl)-1H-pyrazol-3-yl)-2H-indazol-2-yl]-1-phenylethan-1-ol] yielded an IC50 of 190 nM.
